In ChEMBL document CHEMBL4507294, “Data for DCP probe MSD-CYP11B2” (2021):

Tests used:
[1] = tested on: Tyrosine-protein kinase ABL1 (Homo sapiens), P00519 [F317I]; conditions: Compound concentration 1000.0 nM
[2] = tested on: Tyrosine-protein kinase ABL1 (Homo sapiens), P00519 [H396P]; conditions: Compound concentration 1000.0 nM
[3] = target: Tyrosine-protein kinase ABL2 (Homo sapiens) (UniProt P42684); conditions: Compound concentration 1000.0 nM
[4] = target: Activin receptor type-1B (Homo sapiens) (UniProt P36896); conditions: Compound concentration 1000.0 nM
[5] = tested on: ALK tyrosine kinase receptor (Homo sapiens), Q9UM73 [L1196M]; conditions: Compound concentration 1000.0 nM
[6] = target: NUAK family SNF1-like kinase 1 (Homo sapiens) (UniProt O60285); conditions: Compound concentration 1000.0 nM
[7] = target: Mitogen-activated protein kinase kinase kinase 6 (Homo sapiens) (UniProt O95382); conditions: Compound concentration 1000.0 nM
[8] = target: Aurora kinase C (Homo sapiens) (UniProt Q9UQB9); conditions: Compound concentration 1000.0 nM
[9] = target: Serine/threonine-protein kinase BRSK2 (Homo sapiens) (UniProt Q8IWQ3); conditions: Compound concentration 1000.0 nM
[10] = target: Cyclin-dependent kinase 11B (Homo sapiens) (UniProt P21127); conditions: Compound concentration 1000.0 nM
[11] = target: Cyclin-dependent kinase 5 (Homo sapiens) (UniProt Q00535); conditions: Compound concentration 1000.0 nM
[12] = target: Cyclin-dependent kinase 7 (Homo sapiens) (UniProt P50613); conditions: Compound concentration 1000.0 nM
[13] = target: Macrophage colony-stimulating factor 1 receptor (Homo sapiens) (UniProt P07333); conditions: Compound concentration 1000.0 nM
[14] = target: Macrophage colony-stimulating factor 1 receptor (Homo sapiens) (UniProt P07333); conditions: Compound concentration 1000.0 nM; remark: listed apart in the source
[15] = target: Casein kinase I isoform delta (Homo sapiens) (UniProt P48730); conditions: Compound concentration 1000.0 nM
[16] = target: Casein kinase I isoform gamma-1 (Homo sapiens) (UniProt Q9HCP0); conditions: Compound concentration 1000.0 nM
[17] = target: Dual specificity tyrosine-phosphorylation-regulated kinase 1B (Homo sapiens) (UniProt Q9Y463); conditions: Compound concentration 1000.0 nM
[18] = tested on: Epidermal growth factor receptor (Homo sapiens), P00533 [UNDEFINED MUTATION]; conditions: Compound concentration 1000.0 nM
[19] = target: Ephrin type-A receptor 4 (Homo sapiens) (UniProt P54764); conditions: Compound concentration 1000.0 nM
[20] = target: Mitogen-activated protein kinase 3 (Homo sapiens) (UniProt P27361); conditions: Compound concentration 1000.0 nM
[21] = target: Focal adhesion kinase 1 (Homo sapiens) (UniProt Q05397); conditions: Compound concentration 1000.0 nM
[22] = target: G protein-coupled receptor kinase 4 (Homo sapiens) (UniProt P32298); conditions: Compound concentration 1000.0 nM
[23] = target: Tyrosine-protein kinase HCK (Homo sapiens) (UniProt P08631); conditions: Compound concentration 1000.0 nM
[24] = target: Homeodomain-interacting protein kinase 1 (Homo sapiens) (UniProt Q86Z02); conditions: Compound concentration 1000.0 nM
[25] = target: Mast/stem cell growth factor receptor Kit (Homo sapiens) (UniProt P10721); conditions: Compound concentration 1000.0 nM
[26] = target: MAP kinase-activated protein kinase 2 (Homo sapiens) (UniProt P49137); conditions: Compound concentration 1000.0 nM
[27] = target: Dual specificity mitogen-activated protein kinase kinase 5 (Homo sapiens) (UniProt Q13163); conditions: Compound concentration 1000.0 nM
[28] = target: Serine/threonine-protein kinase 4 (Homo sapiens) (UniProt Q13043); conditions: Compound concentration 1000.0 nM
[29] = target: Serine/threonine-protein kinase 24 (Homo sapiens) (UniProt Q9Y6E0); conditions: Compound concentration 1000.0 nM
[30] = target: Serine/threonine-protein kinase 26 (Homo sapiens) (UniProt Q9P289); conditions: Compound concentration 1000.0 nM
[31] = target: Serine/threonine-protein kinase mTOR (Homo sapiens) (UniProt P42345); conditions: Compound concentration 1000.0 nM
[32] = target: Phosphatidylinositol 4,5-bisphosphate 3-kinase catalytic subunit beta isoform (Homo sapiens) (UniProt P42338); conditions: Compound concentration 1000.0 nM
[33] = target: Protein kinase C epsilon type (Homo sapiens) (UniProt Q02156); conditions: Compound concentration 1000.0 nM
[34] = target: Serine/threonine-protein kinase D3 (Homo sapiens) (UniProt O94806); conditions: Compound concentration 1000.0 nM
[35] = target: Protein-tyrosine kinase 2-beta (Homo sapiens) (UniProt Q14289); conditions: Compound concentration 1000.0 nM
[36] = target: Proto-oncogene tyrosine-protein kinase receptor Ret (Homo sapiens) (UniProt P07949); conditions: Compound concentration 1000.0 nM
[37] = target: Serine/threonine-protein kinase RIO1 (Homo sapiens) (UniProt Q9BRS2); conditions: Compound concentration 1000.0 nM
[38] = target: Rho-associated protein kinase 1 (Homo sapiens) (UniProt Q13464); conditions: Compound concentration 1000.0 nM
[39] = target: Ribosomal protein S6 kinase alpha-3 (Homo sapiens) (UniProt P51812); conditions: Compound concentration 1000.0 nM
[40] = target: Serine/threonine-protein kinase TAO2 (Homo sapiens) (UniProt Q9UL54); conditions: Compound concentration 1000.0 nM
[41] = target: Serine/threonine-protein kinase TBK1 (Homo sapiens) (UniProt Q9UHD2); conditions: Compound concentration 1000.0 nM
[42] = target: Dual specificity testis-specific protein kinase 1 (Homo sapiens) (UniProt Q15569); conditions: Compound concentration 1000.0 nM
[43] = target: Serine/threonine-protein kinase tousled-like 2 (Homo sapiens) (UniProt Q86UE8); conditions: Compound concentration 1000.0 nM
[44] = target: D(3) dopamine receptor (Homo sapiens) (UniProt P35462); conditions: Compound concentration 10.0 uM
[45] = target: D(4) dopamine receptor (Homo sapiens) (UniProt P21917); conditions: Compound concentration 10.0 uM
[46] = target: D(1B) dopamine receptor (Homo sapiens) (UniProt P21918); conditions: Compound concentration 10.0 uM

Sequence of Macrophage colony-stimulating factor 1 receptor (Homo sapiens) (P07333 whole entry, canonical isoform): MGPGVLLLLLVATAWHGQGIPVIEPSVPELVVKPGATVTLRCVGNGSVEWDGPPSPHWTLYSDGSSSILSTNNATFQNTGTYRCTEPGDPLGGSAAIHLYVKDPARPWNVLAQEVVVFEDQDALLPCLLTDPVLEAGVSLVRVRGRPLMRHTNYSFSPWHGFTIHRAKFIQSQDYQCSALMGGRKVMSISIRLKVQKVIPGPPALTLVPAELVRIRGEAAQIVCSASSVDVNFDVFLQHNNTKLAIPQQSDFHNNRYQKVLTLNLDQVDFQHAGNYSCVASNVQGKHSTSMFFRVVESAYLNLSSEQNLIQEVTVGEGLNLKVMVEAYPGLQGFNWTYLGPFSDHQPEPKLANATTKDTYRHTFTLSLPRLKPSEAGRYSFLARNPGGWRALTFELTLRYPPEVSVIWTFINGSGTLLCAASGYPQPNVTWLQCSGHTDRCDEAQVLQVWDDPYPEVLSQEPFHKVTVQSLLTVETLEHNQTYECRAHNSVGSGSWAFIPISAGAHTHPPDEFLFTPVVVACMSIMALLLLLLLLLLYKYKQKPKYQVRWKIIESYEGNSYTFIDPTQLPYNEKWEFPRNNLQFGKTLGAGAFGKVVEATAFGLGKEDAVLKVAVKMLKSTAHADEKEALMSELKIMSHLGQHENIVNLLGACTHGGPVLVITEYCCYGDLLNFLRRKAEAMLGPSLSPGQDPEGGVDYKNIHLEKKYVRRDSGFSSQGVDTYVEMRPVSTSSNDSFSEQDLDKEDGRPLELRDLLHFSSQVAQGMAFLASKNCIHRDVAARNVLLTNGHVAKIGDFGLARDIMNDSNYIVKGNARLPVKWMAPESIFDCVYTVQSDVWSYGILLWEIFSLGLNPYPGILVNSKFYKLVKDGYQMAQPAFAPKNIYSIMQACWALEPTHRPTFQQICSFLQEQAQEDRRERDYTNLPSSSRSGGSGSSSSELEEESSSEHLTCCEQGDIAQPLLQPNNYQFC
Sequence of Ephrin type-A receptor 4 (Homo sapiens) (P54764 whole entry): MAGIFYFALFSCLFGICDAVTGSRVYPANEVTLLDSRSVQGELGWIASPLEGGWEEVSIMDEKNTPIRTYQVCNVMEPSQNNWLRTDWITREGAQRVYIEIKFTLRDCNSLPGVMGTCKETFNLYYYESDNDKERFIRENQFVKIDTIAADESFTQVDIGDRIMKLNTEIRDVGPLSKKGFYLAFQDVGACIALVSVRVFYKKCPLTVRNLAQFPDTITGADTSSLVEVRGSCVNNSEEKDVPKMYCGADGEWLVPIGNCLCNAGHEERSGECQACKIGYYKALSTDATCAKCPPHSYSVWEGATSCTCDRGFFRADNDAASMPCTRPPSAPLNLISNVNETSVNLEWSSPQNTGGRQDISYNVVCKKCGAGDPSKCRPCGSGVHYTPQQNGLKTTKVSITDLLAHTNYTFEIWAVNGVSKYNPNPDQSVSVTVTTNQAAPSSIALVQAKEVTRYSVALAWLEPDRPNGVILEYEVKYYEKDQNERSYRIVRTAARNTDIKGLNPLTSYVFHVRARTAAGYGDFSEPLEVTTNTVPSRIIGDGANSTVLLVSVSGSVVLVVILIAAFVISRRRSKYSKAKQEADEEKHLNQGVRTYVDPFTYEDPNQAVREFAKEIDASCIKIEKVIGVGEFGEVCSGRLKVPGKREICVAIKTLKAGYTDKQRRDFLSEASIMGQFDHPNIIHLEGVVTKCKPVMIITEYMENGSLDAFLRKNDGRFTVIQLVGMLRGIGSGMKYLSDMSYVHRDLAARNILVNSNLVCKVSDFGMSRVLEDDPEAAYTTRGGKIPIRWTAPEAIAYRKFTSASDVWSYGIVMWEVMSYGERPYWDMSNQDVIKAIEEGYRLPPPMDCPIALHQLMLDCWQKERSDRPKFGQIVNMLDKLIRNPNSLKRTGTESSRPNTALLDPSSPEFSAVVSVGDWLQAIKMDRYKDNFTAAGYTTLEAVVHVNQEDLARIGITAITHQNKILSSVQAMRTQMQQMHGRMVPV
Sequence of D(4) dopamine receptor (Homo sapiens) (P21917 whole entry): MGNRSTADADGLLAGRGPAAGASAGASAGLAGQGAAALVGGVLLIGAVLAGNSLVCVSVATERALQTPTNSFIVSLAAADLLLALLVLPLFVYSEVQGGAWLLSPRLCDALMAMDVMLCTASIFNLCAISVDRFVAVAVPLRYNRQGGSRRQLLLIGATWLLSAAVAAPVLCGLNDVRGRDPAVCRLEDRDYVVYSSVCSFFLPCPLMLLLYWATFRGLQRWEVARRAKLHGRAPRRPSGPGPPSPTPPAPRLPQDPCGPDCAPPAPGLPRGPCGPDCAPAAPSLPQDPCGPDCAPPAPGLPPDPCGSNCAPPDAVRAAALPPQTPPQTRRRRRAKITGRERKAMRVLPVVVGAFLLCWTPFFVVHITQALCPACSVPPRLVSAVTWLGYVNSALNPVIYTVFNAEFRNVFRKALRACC
Sequence of Cyclin-dependent kinase 5 (Homo sapiens) (Q00535 whole entry, looked up): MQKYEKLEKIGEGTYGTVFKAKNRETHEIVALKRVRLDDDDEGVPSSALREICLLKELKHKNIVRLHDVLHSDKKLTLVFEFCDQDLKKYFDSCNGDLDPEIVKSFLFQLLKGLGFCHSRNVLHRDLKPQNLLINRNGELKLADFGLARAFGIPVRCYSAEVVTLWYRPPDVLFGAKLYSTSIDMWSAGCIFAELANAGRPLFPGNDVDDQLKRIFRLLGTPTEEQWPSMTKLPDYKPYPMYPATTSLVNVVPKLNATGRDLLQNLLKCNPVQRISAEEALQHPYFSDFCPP
Sequence of MAP kinase-activated protein kinase 2 (Homo sapiens) (P49137 whole entry, looked up): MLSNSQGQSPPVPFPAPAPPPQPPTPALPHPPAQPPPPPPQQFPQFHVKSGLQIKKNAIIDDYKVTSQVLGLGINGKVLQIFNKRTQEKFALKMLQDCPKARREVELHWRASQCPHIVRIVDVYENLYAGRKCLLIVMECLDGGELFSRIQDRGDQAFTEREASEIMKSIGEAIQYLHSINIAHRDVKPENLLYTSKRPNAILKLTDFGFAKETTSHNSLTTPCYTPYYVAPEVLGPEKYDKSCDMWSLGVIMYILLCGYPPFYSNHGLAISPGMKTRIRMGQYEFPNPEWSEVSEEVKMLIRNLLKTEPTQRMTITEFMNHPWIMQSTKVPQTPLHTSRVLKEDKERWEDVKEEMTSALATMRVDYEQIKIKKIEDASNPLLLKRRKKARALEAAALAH
Sequence of Protein kinase C epsilon type (Homo sapiens) (Q02156 whole entry): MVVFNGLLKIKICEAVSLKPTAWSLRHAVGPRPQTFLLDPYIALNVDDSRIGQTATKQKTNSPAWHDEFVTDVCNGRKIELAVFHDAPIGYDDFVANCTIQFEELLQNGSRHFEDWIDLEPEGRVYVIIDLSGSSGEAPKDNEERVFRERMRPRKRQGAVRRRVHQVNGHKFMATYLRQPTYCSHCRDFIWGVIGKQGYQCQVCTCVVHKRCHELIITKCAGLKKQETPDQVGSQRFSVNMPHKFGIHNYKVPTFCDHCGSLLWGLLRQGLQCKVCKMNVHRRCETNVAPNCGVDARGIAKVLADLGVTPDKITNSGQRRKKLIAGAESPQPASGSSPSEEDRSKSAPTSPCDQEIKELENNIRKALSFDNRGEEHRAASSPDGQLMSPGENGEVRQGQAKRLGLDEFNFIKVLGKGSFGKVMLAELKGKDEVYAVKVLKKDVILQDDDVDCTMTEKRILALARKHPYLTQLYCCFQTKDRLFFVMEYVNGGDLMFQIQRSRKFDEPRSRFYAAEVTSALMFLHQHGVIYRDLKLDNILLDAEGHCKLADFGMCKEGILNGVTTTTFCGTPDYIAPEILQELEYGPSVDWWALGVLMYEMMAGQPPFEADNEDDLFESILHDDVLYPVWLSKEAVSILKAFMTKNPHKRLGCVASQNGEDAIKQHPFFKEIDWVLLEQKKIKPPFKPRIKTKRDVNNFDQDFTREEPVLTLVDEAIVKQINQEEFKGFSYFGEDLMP
Sequence of Ribosomal protein S6 kinase alpha-3 (Homo sapiens) (P51812 whole entry): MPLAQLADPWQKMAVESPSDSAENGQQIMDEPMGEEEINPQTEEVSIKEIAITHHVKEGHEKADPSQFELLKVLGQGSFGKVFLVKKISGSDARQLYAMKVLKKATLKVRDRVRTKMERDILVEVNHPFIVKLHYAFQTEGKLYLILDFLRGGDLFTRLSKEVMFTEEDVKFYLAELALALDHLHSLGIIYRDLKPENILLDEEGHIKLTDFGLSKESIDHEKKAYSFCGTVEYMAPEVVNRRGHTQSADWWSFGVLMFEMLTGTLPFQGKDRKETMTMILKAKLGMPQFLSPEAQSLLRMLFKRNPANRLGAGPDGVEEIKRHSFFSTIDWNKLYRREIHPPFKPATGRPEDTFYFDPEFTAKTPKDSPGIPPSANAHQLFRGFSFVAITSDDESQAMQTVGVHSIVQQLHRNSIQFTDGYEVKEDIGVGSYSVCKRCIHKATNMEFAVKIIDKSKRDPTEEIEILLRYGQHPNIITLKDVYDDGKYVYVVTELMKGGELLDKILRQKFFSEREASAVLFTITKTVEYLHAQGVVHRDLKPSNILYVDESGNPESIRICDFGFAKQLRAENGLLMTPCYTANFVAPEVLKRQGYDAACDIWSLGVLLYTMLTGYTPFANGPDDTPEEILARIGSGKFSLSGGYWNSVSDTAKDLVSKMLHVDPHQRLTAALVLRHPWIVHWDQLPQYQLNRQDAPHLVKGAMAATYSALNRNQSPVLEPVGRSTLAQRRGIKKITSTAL
Sequence of D(3) dopamine receptor (Homo sapiens) (P35462 whole entry): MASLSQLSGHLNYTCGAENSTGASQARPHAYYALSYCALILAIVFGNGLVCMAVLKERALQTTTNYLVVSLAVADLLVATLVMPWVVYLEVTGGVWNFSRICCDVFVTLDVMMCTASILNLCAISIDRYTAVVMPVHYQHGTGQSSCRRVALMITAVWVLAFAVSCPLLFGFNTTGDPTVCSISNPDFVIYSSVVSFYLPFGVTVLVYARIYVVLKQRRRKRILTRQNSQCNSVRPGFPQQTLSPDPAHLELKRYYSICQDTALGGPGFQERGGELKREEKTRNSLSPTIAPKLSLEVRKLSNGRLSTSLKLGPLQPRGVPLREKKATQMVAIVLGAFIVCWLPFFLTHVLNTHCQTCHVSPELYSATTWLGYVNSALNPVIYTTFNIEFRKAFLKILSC

CC(C)(O)c1cncc(-c2nc3ccc(F)cc3n2C2CC2)c1 [MSD-CYP11B2]
residual activity [1]: 100%
residual activity [2]: 100%
residual activity [3]: 100%
residual activity [4]: 99%
residual activity [5]: 100%
residual activity [6]: 100%
residual activity [7]: 100%
residual activity [8]: 100%
residual activity [9]: 100%
residual activity [10]: 100%
residual activity [11]: 100%
residual activity [12]: 88%
residual activity [13]: 99%
residual activity [14]: 100%
residual activity [15]: 100%
residual activity [16]: 100%
residual activity [17]: 44%
residual activity [18]: 100%
residual activity [19]: 100%
residual activity [20]: 100%
residual activity [21]: 100%
residual activity [22]: 100%
residual activity [23]: 100%
residual activity [24]: 97%
residual activity [25]: 100%
residual activity [26]: 100%
residual activity [27]: 100%
residual activity [28]: 100%
residual activity [29]: 100%
residual activity [30]: 100%
residual activity [31]: 96%
residual activity [32]: 81%
residual activity [33]: 100%
residual activity [34]: 100%
residual activity [35]: 100%
residual activity [36]: 100%
residual activity [37]: 100%
residual activity [38]: 99%
residual activity [39]: 100%
residual activity [40]: 100%
residual activity [41]: 72%
residual activity [42]: 100%
residual activity [43]: 100%
inhibition [44]: -6.18%
inhibition [45]: -5.72%
inhibition [46]: 21%

FC(F)(F)c1ccc2c(c1)nc(-c1cccnc1)n2C1CC1 [MSD-CYP11B2-Negative-control]
residual activity [1]: 100%
residual activity [2]: 100%
residual activity [3]: 100%
residual activity [4]: 98%
residual activity [5]: 100%
residual activity [6]: 100%
residual activity [7]: 100%
residual activity [8]: 100%
residual activity [9]: 90%
residual activity [10]: 100%
residual activity [11]: 100%
residual activity [12]: 100%
residual activity [13]: 100%
residual activity [14]: 89%
residual activity [15]: 100%
residual activity [16]: 100%
residual activity [17]: 53%
residual activity [18]: 100%
residual activity [19]: 100%
residual activity [20]: 100%
residual activity [21]: 100%
residual activity [22]: 100%
residual activity [23]: 100%
residual activity [24]: 100%
residual activity [25]: 100%
residual activity [26]: 100%
residual activity [27]: 96%
residual activity [28]: 100%
residual activity [29]: 100%
residual activity [30]: 100%
residual activity [31]: 80%
residual activity [32]: 97%
residual activity [33]: 97%
residual activity [34]: 100%
residual activity [35]: 100%
residual activity [36]: 99%
residual activity [37]: 100%
residual activity [38]: 100%
residual activity [39]: 89%
residual activity [40]: 99%
residual activity [41]: 82%
residual activity [42]: 100%
residual activity [43]: 100%
inhibition [44]: -1.96%
inhibition [45]: -3.28%
inhibition [46]: 22.5%
